Reference: US20130281409A1, “Myelin Sheath Fatty Acids that Resolve Neuroinflammation” (priority 2012, published 2013)
Entries after “also recorded” stand apart in the source; their conditions may differ.

Columns and labels:
Type in all cases: in vivo, mouse
[1] = tested on: lymph node cells and splenocytes; test: PLP139-151-induced cytokine secretion by cells from PGPC-treated EAE mice
Experimental: PLP-stimulated cells from PLP139-151-immunized mice administered PGPC prophylactically: SJL/J mice were co-injected with PGPC and PLP139-151 in CFA and sacrificed 48 days later. Lymph node cells and splenocytes were then harvested and re-stimulated in vitro (2.5×10^6 cells/ml) with 10 μg/ml of PLP139-151 or with media alone. PLP-stimulated cells from untreated PLP139-151-immunized mice: SJL/J mice were immunized with PLP139-151 in CFA and sacrificed 10 days later. Splenocytes were then harvested and re-stimulated in vitro (at 5×10^5 cells/ml) with 10 μg/ml of PLP139-151 in the presence of 30 μg/ml of POPS, PGPC, azPC ester, or azPC. Cytokine production by cells from the lymph nodes and spleens of PGPC co-immunized mice was measured after 66 hours of stimulation by using the BD OptEIA™ Mouse IFN-γ ELISA kit (BD Biosciences). Cytokine assays for the anti-CD3/anti-CD28 antibody-stimulated T cells and PLP139-151-stimulated splenocytes were performed on culture supernatants after 48 hours of stimulation using the BD OptEIA™ Mouse IL-6, IFN-γ, and TNF alpha ELISA kits (BD Biosciences) and the Mouse IL-17 DuoSet ELISA Development kit (R&D Systems).

[2] = tested on: CD4+ T cells; test: CD69 expression on lymph node cells from PGPC-treated EAE mice (flow cytometry); settings: lymph node cells of prophylactically treated EAE mice, cultured 4 days with 10 μg/ml PLP139-151
Experimental: FIG. 9. PGPC treatment of mice with EAE suppresses T-cell activation. (A) Expression of CD69 (an early marker of activation) on CD4+ and CD8+ propidium iodide-negative (i.e. live) lymphocytes isolated from PGPC—or vehicle-treated EAE mice and cultured for 4 days with 10 μg/ml of PLP139-151. The ratio of CD69+CD4+:CD69−CD4+ is 14.2%:39.6% for lymph node cells from vehicle-treated EAE mice, and 7.96%:55.2% for cells from PGPC-treated EAE mice. […] (B) Proliferation and (C) cytokine production of splenocytes isolated from the vehicle- or PGPC-treated EAE mice in panel A. Splenocytes from PGPC-treated mice (gray bars) secreted lower levels of IFN-γ and TNF in response to PLP139-151. *P<0.05, respectively, by Student's t-test comparing PLP139-151-stimulated cells from PGPC-treated mice with PLP139-151-stimulated cells from vehicle-treated mice.
PLP-stimulated cells from PLP139-151-immunized mice administered PGPC prophylactically: SJL/J mice were co-injected with PGPC and PLP139-151 in CFA and sacrificed 48 days later. Lymph node cells and splenocytes were then harvested and re-stimulated in vitro (2.5×10^6 cells/ml) with 10 μg/ml of PLP139-151 or with media alone. […]
Cells were stained according to standard protocols, run on a FACScan flow cytometer (BD Biosciences), and analysed with CellQuest software (BD Immunocytometry Systems) or with FlowJo software version 6.3.2 (Tree Star, Inc.). […]

[3] = tested on: EAE in PLP139-151-immunized SJL/J mice; test: EAE, lipid administered prophylactically (co-immunization with PLP139-151); settings: 6 μg/injection; s.c. with PLP139-151 on day 0, i.p. on days 4 and 7
Experimental: Animal experiments were approved by, and performed in compliance with, the National Institute of Health guidelines of the Institutional Animal Care and Use Committee at Stanford University. For induction of EAE, 8- to 12-week-old female SJL/J mice (Jackson Laboratory) were immunized subcutaneously with 100 μg of PLP139-151 emulsified in CFA (Difco Laboratories). Three injections of PGPC (6 μg/mouse/injection) or vehicle (0.05% Tween-20 in PBS) were delivered on days 0, 4, and 7 after immunization with PLP139-151. On day 0, the lipid or vehicle was emulsified together with PLP139-151 in CFA and administered by subcutaneous injection. At subsequent time points, lipid or vehicle was injected intraperitoneally. EAE was assessed as previously described. To induce EAE in SJL/J mice (Jackson Mice), we immunized 8- to 12-week-old female animals subcutaneously with 100 μg of PLP139-151 emulsified in CFA (Difco Laboratories). Prophylactic administration of lipid: Three injections of PGPC or sphingomyelin (6 μg/mouse/injection) or vehicle (0.05% Tween-20 in PBS) were delivered on days 0, 4, and 7 after immunization with PLP139-151. […] Clinical disease was monitored daily using the following scoring system: 0, no disease; 1, limp tail; 2, hind limb weakness; 3, hind limb paralysis; 4, hind limb and forelimb paralysis; 5, death. […]

CCCCCCCCCCCCCCCC(=O)OC[C@H](COP(=O)([O-])OCC[N+](C)(C)C)OC(=O)CCCC(=O)O [PGPC, 1-Palmitoyl-2-Glutaroyl-sn-Glycero-3-Phosphocholine]
IFN-γ secretion upon PLP139-151 stimulation ([1]; cells from PGPC-treated vs vehicle-treated EAE mice): secreted less IFN; also recorded: lower levels | TNF secretion upon PLP139-151 stimulation ([1]; splenocytes from PGPC-treated vs vehicle-treated EAE mice): lower levels | CD4+CD69+ cells [2]: 7.96% | CD69−CD4+ cells [2]: 55.2% | EAE severity (clinical score) [3]: reduced the severity of EAE
